“And” between values parts separate entries of the source, which are not always exact repeats. Equal entries are not always repeated.
Experiments:
[1] = tested on: Dirofilaria immitis microfilariae; experiment: Dirofilaria immitis microfilariae immobility assay (DiroImager, 72 h); settings: Dirofilaria immitis microfilariae
Description: We conducted experiments with the Missouri isolate of Dirofilaria immitis in two labs. In the first set of experiments, shown as part of Fig. 3c, D. immitis microfilariae and larval stage 3 (L3) worms were assayed in the laboratories of Bayer Animal Health GmbH (Monheim, Germany). For microfilariae immobility assays, approximately 250 freshly purified microfilariae were cultured in single wells of a 96-well microtiter plate containing supplemented RPMI 1640 medium[68],[69]. […] Microfilariae exposed to medium substituted with 1% DMSO were used as negative controls. Motility of microfilariae was evaluated after 72 h of drug exposure using an image-based approach—DiroImager, developed by Bayer Technology Services. As described in detail in refs. [68],[69], the DiroImager is an automated high-throughput platform that allows for high-resolution optical imaging of an entire 96-well microtiter plate.

Pristionchus pacificus = Pristionchus pacificus motor disruption dose-response on solid media, 1 h; settings: for mean % any phene (coiled, jerky-Unc or paralyzed): Pristionchus pacificus young adults, mean of three biological replicates; for EC50: Pristionchus pacificus, 1 h, read-out: P. pacificus motor disruption EC50
C. elegans = C. elegans motor phenotype scoring on solid media (Punc/jerky-unc, coiled, paralyzed), wild-type young adults; assay type: in vivo, Caenorhabditis elegans; settings: for any phene, mean % fraction of young adults exhibiting any phenotype (coiled, jerky-Unc or paralyzed) / atypical locomotion (number of animals) / coiled (number of animals) / no phene (number of animals) / paralyzed (number of animals): one hour; for any phene, mean % fraction of young adults exhibiting any phenotype (coiled, jerky-Unc or paralyzed): mean of three biological replicates; for atypical locomotion (number of animals) / coiled (number of animals) / no phene (number of animals) / paralyzed (number of animals): young adults, 20 animals per trial, single replicate counts; for EC50: Caenorhabditis elegans, any motor phenotype after 1 h on solid media, ± 95% CI, read-out: C. elegans - motor disruption EC50
[2] = tested on: Dirofilaria immitis L3/L4; experiment: Dirofilaria immitis L3/L4 motility assay (DiroImager, 72 h); settings: Dirofilaria immitis L4
[3] = conc 3.75, observed at one hour

| SMILES | % effect (motility), DIROIM MF ([1]; 0.016 µM) | % effect (motility), DIROIM MF ([1]; 0.08 µM) | % effect (motility), DIROIM MF ([1]; 0.4 µM) | % effect (motility), DIROIM MF ([1]; 2 µM) | % effect (motility), DIROIM MF ([1]; 10 µM) | mean % any phene (coiled, jerky-Unc or paralyzed) (Pristionchus pacificus; [3]) | mean % any phene (coiled, jerky-Unc or paralyzed) (Pristionchus pacificus; conc 15, observed at one hour) | mean % any phene (coiled, jerky-Unc or paralyzed) (Pristionchus pacificus; conc 60, observed at one hour) | EC50 (Pristionchus pacificus) | any phene, mean % fraction of young adults exhibiting any phenotype (coiled, jerky-Unc or paralyzed) (C. elegans; 3.75uM) | atypical locomotion (number of animals) (C. elegans; 3.75uM) | coiled (number of animals) (C. elegans; 3.75uM) | no phene (number of animals) (C. elegans; 3.75uM) | paralyzed (number of animals) (C. elegans; 3.75uM) | any phene, mean % fraction of young adults exhibiting any phenotype (coiled, jerky-Unc or paralyzed) (C. elegans; 15uM) | atypical locomotion (number of animals) (C. elegans; 15uM) | coiled (number of animals) (C. elegans; 15uM) | no phene (number of animals) (C. elegans; 15uM) | paralyzed (number of animals) (C. elegans; 15uM) | any phene, mean % fraction of young adults exhibiting any phenotype (coiled, jerky-Unc or paralyzed) (C. elegans; 60uM) | also measured |
| --- | --- | --- | --- | --- | --- | --- | --- | --- | --- | --- | --- | --- | --- | --- | --- | --- | --- | --- | --- | --- | --- |
| Clc1ccc(N2CCN(CC3CCCCC3)CC2)cc1 [Nemacol-10] | 0% | 0% | 0% | 0% | 0% | 0.8333% | 3.333% | 6.667% | > 60 µM | 0% | 0 | 0 | 20 | 0 | 27.5% | 5 and 4 and 3 and 1 and 2 | 1 and 2 and 0 and 3 | 14 and 13 and 18 | 0 and 1 and 3 | 55.6944% | atypical locomotion (number of animals) (C. elegans; 60uM): 8 and 14 and 12 and 11 and 6 and 7; coiled (number of animals) (C. elegans; 60uM): 1 and 0 and 2; no phene (number of animals) (C. elegans; 60uM): 11 and 4 and 7 and 8 and 12 and 13; paralyzed (number of animals) (C. elegans; 60uM): 4 and 2 and 0; EC50 (C. elegans): 45.7 ± 15.7 µM; % effect (motility), DIROIM L4 ([2]; 2 µM): 0%; % effect (motility), DIROIM L4 ([2]; 10 µM): 0%; % effect (motility), DIROIM L4 ([2]; 50 µM): 25% |
| CCN1CCN(CC2CCCCC2)CC1 [Nemacol-11] | 0% | 0% | 0% | 0% | 0% | 0% | 0% | 3.333% | > 60 µM | 3.333% | 0 and 3 and 1 | 0 | 20 and 17 and 19 | 0 | 6.667% | 0 and 5 and 3 | 0 | 20 and 15 and 17 | 0 | 19.1667% | atypical locomotion (number of animals) (C. elegans; 60uM): 1 and 0 and 13 and 9; coiled (number of animals) (C. elegans; 60uM): 0; no phene (number of animals) (C. elegans; 60uM): 19 and 20 and 7 and 11; paralyzed (number of animals) (C. elegans; 60uM): 0; EC50 (C. elegans): > 60 µM; % effect (motility), DIROIM L4 ([2]; 2 µM): 10%; % effect (motility), DIROIM L4 ([2]; 10 µM): 5%; % effect (motility), DIROIM L4 ([2]; 50 µM): 0% |
